According to patent US20240077423A1, “A TRANSCRIPTIONAL REGULATOR SPECIFICALLY RESPONDING TO D-2-HYDROXYGLUTARATE AND APPLICATION THEREOF” (SHANDONG UNIVERSITY, priority 2021, published 2024):
Where a chain is given by its changes, count along the chain named. “Also recorded” adds a separate entry of the source.

T1: DhdR (Achromobacter denitrificans NBRC 15125)
T1 chain: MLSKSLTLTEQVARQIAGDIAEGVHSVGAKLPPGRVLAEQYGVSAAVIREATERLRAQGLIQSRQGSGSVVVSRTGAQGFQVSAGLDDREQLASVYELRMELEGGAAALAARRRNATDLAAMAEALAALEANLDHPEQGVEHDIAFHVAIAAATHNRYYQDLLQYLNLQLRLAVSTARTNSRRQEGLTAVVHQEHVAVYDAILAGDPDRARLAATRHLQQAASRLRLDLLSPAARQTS

B1: dhdO (dsDNA)
DNA 1: GAGTCGCGGCGGCGCGCCGGATCCGGGCTGTCATTGTCAAAAGTTATCAGATAACCTGAAAAGTAGGCCTATAATCGGCGC
DNA 2: GCGCCGATTATAGGCCTACTTTTCAGGTTATCTGATAACTTTTGACAATGACAGCCCGGATCCGGCGCGCCGCCGCGACTC
B2: biotinylated dhdO (dsDNA)
DNA 1: B1 DNA 1
DNA 2: B1 DNA 2
B3: biotinylated dhdO-1 (dsDNA)
DNA 1: B1 DNA 1 with G43T
DNA 2: B1 DNA 2 with C39A

Tests used:
binding of DhdR to dhdO = test: Analysis of DhdR effector by electrophoretic mobility shift assays; design: species or system Achromobacter denitrificans NBRC 15125; details: 40 mM compound, 70 nM DhdR, dhdO target DNA, EMSA, FIG. 2
Experimental: DhdR is incubated with different compounds (D-2-HG, L-2-HG, D-malate, D-lactate, glutarate, 2-ketoglutarate, or pyruvate) respectively. Then, the target DNA fragment dhdO is added. The influence on the binding capacity of DhdR and the target DNA fragment dhdO in the presence of the different compounds is analyzed through electrophoresis separation, staining, and imaging.
(§1) The dhdO nucleotide fragment obtained in step (2) above was diluted to 100 nM using binding buffer, and the purified DhdR protein was diluted to 2000 nM. 70 nM purified DhdR protein was first incubated with 40 mM different compounds (D-2-HG, L-2-HG, D-malate, D-lactate, glutarate, 2-ketoglutarate, or pyruvate) at 30° C. for 15 minutes in 18 μL binding buffer. Subsequently, 2 μL of 100 nM dhdO was added and incubated at 30° C. for another 30 min. 10 μL of the sample was analyzed by electrophoresis with 6% native polyacrylamide at 170 V for 45 min on ice. The gel was then stained with SYBR Green I for 30 min avoiding light and photographed by gel imager. […] DhdR can bind to dhdO in the absence of D-2-HG. However, when D-2-HG is present, DhdR will be dissociated from dhdO.

DhdR [1] = biological target: T1, DhdR; test: EMSA; 70 nM DhdR, 10 nM dhdO, 30 C; 40 mM D-2-HG inhibits binding; L-2-HG, D-malate, D-lactate, glutarate, 2-ketoglutarate, pyruvate do not; details: tags: His6 (pETDuet-1, E. coli BL21(DE3))
Experimental: as §1

DhdR [2] = biological target: T1, DhdR; test: AlphaScreen-type bead luminescence, HBS-P pH 7.4; D-2-HG dissociates complex, LOD 0.8 uM, range about 2-50 uM; details: tags: His6 (pETDuet-1, E. coli BL21(DE3)); label: 5'-biotin
Experimental: (§2) According to the method of detecting the luminescence signal described in (2), a gradient D-2-HG solution dissolved in HBS-P buffer was used and mixed with 5 μL of 1 nM biotinylated dhdO fragment, 0.3 nM DhdR protein, donor beads, and acceptor beads. The luminescence signal was detected to plot the dose-response curves.
The combination of the 1 nM biotinylated dhdO fragment, 0.3 nM DhdR protein, 20 μg/mL donor beads, and 20 μg/mL acceptor beads was named as D-2-HG biosensor BD2HG-0, with a limit of detection of 0.8 μM and a detection range of about 2-50 μM.

DhdR [3] = biological target: T1, DhdR; test: AlphaScreen-type bead luminescence, HBS-P pH 7.4; D-2-HG dissociates complex, LOD 0.08 uM, range about 0.3-20 uM; details: tags: His6 (pETDuet-1, E. coli BL21(DE3)); label: 5'-biotin
Experimental: 5 μL biotinylated dhdO-1 fragment, 5 μL DhdR protein and 5 μL solution containing D-2-HG were added into a white 384-well plate, mixed evenly by the oscillation function of a microplate reader, and incubated in dark at room temperature for 30 minutes. Then, 5 μL acceptor beads (20 μg/mL) were added and incubated in dark at room temperature for 30 minutes. Finally, 5 μL donor beads (20 μg/mL) were added and incubated in dark at room temperature for 60 minutes. The luminescence signal was measured by EnSight Multimode Plate Reader. The excitation wavelength was 680 nm and the detection wavelength was 520-620 nm. The background signal without a D-2-HG biosensor was deducted at each emission wavelength.
as §2, with “dhdO-1” for “dhdO”

Row | Molecule | effect on the binding of DhdR to dhdO (binding of DhdR to dhdO) | also measured
1 | C[C@@H](O)C(=O)O [D-lactate] | could not interfere with the binding of DhdR to dhdO | –
2 | O=C(O)C[C@@H](O)C(=O)O [D-malate] | could not interfere with the binding of DhdR to dhdO | –
3 | O=C(O)CC[C@H](O)C(=O)O [L-2-HG, L-2-hydroxyglutarate] | could not interfere with the binding of DhdR to dhdO | –
4 | O=C(O)CCC(=O)C(=O)O [2-ketoglutarate] | could not interfere with the binding of DhdR to dhdO | –
5 | O=C(O)CC[C@@H](O)C(=O)O [D-2-HG, D-2-Hydroxyglutarate] | prevents the binding of DhdR and the target DNA fragment dhdO; also recorded: could inhibit the binding of DhdR to dhdO | –
6 | B1 | – | binding result (DhdR [1]): binds
7 | B2 | – | binding result (DhdR [2]): binds
8 | B3 | – | binding result (DhdR [3]): binds
